According to patent US20250248979A1, “NOVEL GPX4 INHIBITORS AND USES THEREOF” (THE TRUSTEES OF COLUMBIA UNIVERSITY IN THE CITY OF NEW YORK, priority 2022, published 2025):
Read-outs that look alike come from different tables or passages of the source.

Key:
[1] = target: T1, GPX4 (Homo sapiens, UniProt P36969); assay: GPX4 activity assay in cell lysates (NADPH-coupled); format: biochemical; parameters: endogenous in cells; host or cells: A-673 cell lysate
T1 sequence (P36969 1-170 isoform P36969-2): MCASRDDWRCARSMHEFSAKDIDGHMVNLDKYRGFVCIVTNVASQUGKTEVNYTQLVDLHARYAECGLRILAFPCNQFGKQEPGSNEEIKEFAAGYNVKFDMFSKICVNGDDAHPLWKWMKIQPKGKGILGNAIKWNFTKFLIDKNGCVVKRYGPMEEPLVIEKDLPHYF
Procedure, shortened: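 Native GPX4 in lysates of A-673 cells grown with 20 nM sodium selenite; lysate preincubated with compound 45 min at 37 °C in pH 8.0 buffer with 3 mM GSH, 0.5 mM NADPH and glutathione reductase. Reaction started with phosphatidylcholine hydroperoxide; NADPH consumption followed at 340 nm over 25 min; triplicates.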

[2] = tested on: HT-1080 cells; assay: Cellular dose response assay, HT-1080 with and without Fer-1; format: cell-based, human; details: for Selectivity: ferroptosis selectivity; for ferroptosis induction / potency in HT-1080 cells, result in words: RSL3 as control
From the text: HT-1080 (human [Homo sapiens] […] fibrosarcoma), A-673 (human [Homo sapiens] […] Ewing's sarcoma), and SK-HEP-1 (human [Homo sapiens] […] hepatic adenocarcinoma), cells were obtained from ATCC. Huh7 (human [Homo sapiens] […] hepatocellular carcinoma), HLF (human [Homo sapiens] […] hepatocellular carcinoma), HepG2 (human [Homo sapiens] […] hepatocellular carcinoma), cells were obtained from the Cancer Cell Bank at Columbia University Irving Medical Center. HT-1080, A-673, Huh-7, and HLF cells were grown in Dulbecco's Modified Eagle Medium (DMEM) supplemented with 10% heat inactivated fetal bovine serum (HI-FBS), 1% non-essential amino acids, and 1% penicillin streptomycin. HepG2 and SK-HEP-1 cells were grown in Eagle's Minimum Essential Medium (EMEM) supplemented with 10% HI-FBS, and 1% penicillin-streptomycin. All cells were cultured at 37° C. and 5% CO2.
HT-1080, HepG2, Huh7, HLF, and SK-HEP-1 cells were seeded into opaque white 384-well plates at 1500 cells per well then incubated at 37° C. with 5% CO2 overnight. The next day, compounds of interest were dissolved in DMSO and 12-point 2-fold dilution series were prepared with and without Fer-1. Cells were treated in triplicate (final DMSO concentration of 0.4% in all wells, including DMSO-only control wells) and incubated for a further 48 hours at 37° C. and 5% CO2. Cell viability was evaluated using CellTiter-Glo (Promega G7573) and luminescence was recorded on a Victor 5 plate reader. Data were analyzed in GraphPad Prism 9 and error bars represent standard deviation values for three technical replicates in a representative experiment.

[3] = HT1080 + Fer-1, read-out: IC50 (uM) HT1080 + Fer-1
[4] = HT1080, without Fer-1, read-out: IC50 (uM) HT1080
[5] = with Fer-1, Table 10, read-out: IC50 (μM) HT1080 + Fer-1
[6] = without Fer-1, Table 10, read-out: IC50 (μM) HT1080

Row | Compound | Selectivity ([2]; IC50 with Fer-1 / IC50) | IC50 [2, 5] | IC50 [2, 6] | further results
1 | Cn1nc(C(=O)NC(C)(C)C(C)(C)OC(=O)CCl)c2ccc(-c3ccc(OC(C)(C)C)cc3)cc21 [QW-770] |  |  |  | GPX4% inhibition at 2.5 μM [1]: −36.4 ± 19.3%; IC50 [2, 3]: 2.2 µM; IC50 [2, 4]: 1 µM; Selectivity ([2]; HT1080 + Fer-1 vs HT1080): 2.2
2 | Cn1nc(-n2cc(C(C)(C)COC(=O)CCl)nn2)c2ccc(-c3ccc(OC(F)(F)F)c(Cl)c3)cc21 [QW-677] |  |  |  | GPX4% inhibition at 2.5 μM [1]: 33.6 ± 6.3%; IC50 [2, 3]: 14 µM; IC50 [2, 4]: 1.65 µM; Selectivity ([2]; HT1080 + Fer-1 vs HT1080): 8.5
3 | C=CC(=O)OCC(C)(C)NC(=O)c1nn(Cc2ccc(Cl)cc2)c2cc(-c3ccc(OC)c(Cl)c3)ccc12 [QW-831] | 1.1 | 13 µM | 12 µM | GPX4% inhibition at 2.5 μM ([1]; 4th generation): 32.6 ± 61.0%
4 | Cn1nc(C(=O)NC(C)(C)COC(=O)CCl)c2ccc(-c3cc4ccccc4s3)cc21 [QW-470] |  |  |  | GPX4% inhibition at 5 μM ([1]; 5 μM): 75.0 ± 5.6%; IC50 [2, 3]: 17.3 µM; IC50 [2, 4]: 1.7 µM; Selectivity ([2]; HT1080 + Fer-1 vs HT1080): 10.2
5 | COc1ccc(-c2ccc3c(-n4cc(CCOC(=O)CCl)nn4)nn(C)c3c2)cc1Cl [QW-755] |  |  |  | GPX4% inhibition at 2.5 μM [1]: 43.2 ± 14.9%; IC50 [2, 3]: 23.9 µM; IC50 [2, 4]: 9.5 µM; Selectivity ([2]; HT1080 + Fer-1 vs HT1080): 2.5
6 | COc1c(Cl)cc(-c2ccc3c(-n4cc(C(C)(C)COC(=O)CCl)nn4)nn(C)c3c2)cc1Cl [QW-712] |  |  |  | GPX4% inhibition at 2.5 μM [1]: 68.5 ± 9.4%; IC50 [2, 3]: 28.4 µM; IC50 [2, 4]: 1.9 µM; ferroptosis induction / potency in HT-1080 cells, result in words [2]: less potent compared to RSL3; Selectivity ([2]; HT1080 + Fer-1 vs HT1080): 14.9
7 | COc1ccc(-c2ccc3c(C(=O)NC(C)(C)C(C)OC(=O)CCl)nn(C)c3c2)cc1Cl (racemic) [QW-736] |  |  |  | GPX4% inhibition at 2.5 μM [1]: 95.3 ± 7.6%; IC50 [2, 3]: 7.3 µM; IC50 [2, 4]: 3.7 µM; Selectivity ([2]; HT1080 + Fer-1 vs HT1080): 2.0
8 | COc1ccc(-c2cc(Cl)cc(Cn3nc(C(=O)NC(C)(C)C(C)(C)OC(=O)CCl)c4ccc(-c5ccc(OC)c(Cl)c5)cc43)c2)cc1Cl [QW-888] | 2.0 | 49.6 µM | 24.5 µM | GPX4% inhibition at 2.5 μM ([1]; 4th generation): 78.7 ± 5.0%
9 | COc1ccc(-c2ccc3c(C(=O)NCC(C)(C)OC(=O)CCl)nn(C)c3c2)cc1Cl [QW-774] |  |  |  | GPX4% inhibition at 2.5 μM [1]: −25.3 ± 6.9%; IC50 [2, 3]: 8.8 µM; IC50 [2, 4]: 3.7 µM; Selectivity ([2]; HT1080 + Fer-1 vs HT1080): 2.4
10 | CC(C)Oc1ncc(-c2ccc3c(C(=O)NC(C)(C)COC(=O)CCl)nn(C)c3c2)cn1 [QW-716] |  |  |  | GPX4 inhibitory activity, result in words [1]: substantially higher GPX4 inhibitory activities than QW-446; GPX4% inhibition at 2.5 μM [1]: 86.4 ± 7.3%; IC50 [2, 3]: 63 µM; IC50 [2, 4]: 1.6 µM; ferroptosis induction / potency in HT-1080 cells, result in words [2]: more potent compared to RSL3; Selectivity ([2]; HT1080 + Fer-1 vs HT1080): 39.4
11 | COc1c(Cl)cc(-c2ccc3c(C(=O)NC(C)(C)C(C)(C)OC(=O)CCl)nn(C)c3c2)cc1C(F)(F)F [QW-813] |  |  |  | GPX4% inhibition at 2.5 μM [1]: −17.0 ± 28.7%; IC50 [2, 3]: 3 µM; IC50 [2, 4]: 2.1 µM; Selectivity ([2]; HT1080 + Fer-1 vs HT1080): 1.4
12 | COc1ccc(-c2ccc3c(C(=O)NC(C)(C)C(C)(C)OC(=O)CCl)nn(Cc4cc(Cl)cc(Cl)c4)c3c2)cc1Cl [QW-886] | 4.5 | 55.3 µM | 12.4 µM | 
13 | COC(=O)/C=C/C(=O)OCC(C)(C)NC(=O)c1nn(Cc2cc(Cl)cc(Cl)c2)c2cc(-c3ccc(N4CCOCC4)c(Cl)c3)ccc12 [QW-1001] |  | > 40 µM | > 40 µM | 
14 | CC(C)(COC(=O)CCl)NC(=O)c1nn(Cc2ccc(Cl)c(Cl)c2)c2cc(-c3ccc(N4CCOCC4)c(Cl)c3)ccc12 [QW-968] |  | > 40 µM | > 40 µM | 
15 | COc1ccc(-c2ccc3c(C(=O)NC(C)(C)COC(=O)CCl)nn(Cc4cccc(Cl)c4Cl)c3c2)cc1Cl [QW-958] | 13.7 | 31.6 µM | 2.3 µM | 
16 | CC(=O)OCC(C)(C)NC(=O)c1nn(Cc2cc(Cl)cc(Cl)c2)c2cc(-c3ccc(N4CCOCC4)c(Cl)c3)ccc12 [QW-999] |  | > 40 µM | > 40 µM | ferroptosis induction / potency in HT-1080 cells, result in words [2]: inactive in cellular assay

Row | Compound | Selectivity ([2]; IC50 with Fer-1 / IC50) | IC50 [2, 5] | IC50 [2, 6] | further results
17 | CC(C)(COC(=O)CCl)NC(=O)c1c2ccc(-c3ccc(N4CCOCC4)c(Cl)c3)cc2nn1Cc1ccc(Cl)nc1 [QW-904] | 3.8 | 2.8 µM | 0.74 µM | ferroptosis selectivity ([2]; HT-1080): 3.8
18 | CCCOc1ccc(-c2ccc3c(C(=O)NC(C)(C)COC(=O)CCl)nn(Cc4cc(Cl)cc(Cl)c4)c3c2)cc1Cl [QW-987] | >55 | > 40 µM | 0.72 µM | 
19 | CC(=O)c1cccc(Cn2nc3cc(-c4ccc(N5CCOCC5)c(Cl)c4)ccc3c2C(=O)NC(C)(C)COC(=O)CCl)c1 [QW-911] | 3.8 | 5 µM | 1.3 µM | 
20 | COc1ccc(-c2ccc3c(C(=O)NC(C)(C)COC(=O)CCl)nn(Cc4cc(Cl)ccc4Cl)c3c2)cc1Cl [QW-946] | 133.4 | 454 µM | 3.4 µM | 
21 | CC(C)(COC(=O)CCl)NC(=O)c1nn(Cc2cccc(Cl)c2Cl)c2cc(-c3ccc(N4CCOCC4)c(Cl)c3)ccc12 [QW-959] | 508.5 | 610 µM | 1.2 µM | 
22 | CC(C)(COC(=O)CCl)NC(=O)c1c2ccc(-c3ccc(N4CCOCC4)c(Cl)c3)cc2nn1Cc1cc(C(F)(F)F)cc(C(F)(F)F)c1 [QW-945] | 4.0 | 10.7 µM | 2.7 µM | 
23 | CC(C)(COC(=O)CCl)NC(=O)c1nn(Cc2cc(Cl)cc(Cl)c2)c2cc(-c3ccc(C(F)(F)F)c(Cl)c3)ccc12 [QW-995] | 1.1 | 47.1 µM | 42.3 µM | 
24 | COc1ccc(-c2ccc3c(C(=O)NC(C)(C)CNC(=O)CCl)nn(Cc4cc(Cl)cc(Cl)c4)c3c2)cc1Cl [QW-927] | 5.1 | 8.2 µM | 1.6 µM | 
25 | COc1ccc(-c2ccc3c(C(=O)NC(C)(C)COC(=O)CCl)nn(Cc4cc(C(F)(F)F)cc(C(F)(F)F)c4)c3c2)cc1Cl [QW-930] | 0.6 | 13 µM | 21.8 µM | 
26 | CC(C)(NC(=O)c1nn(Cc2cc(Cl)cc(Cl)c2)c2cc(-c3ccc(N4CCOCC4)c(Cl)c3)ccc12)C(C)(C)OC(=O)CCl [QW-887] | >174 | > 40 µM |  | IC50 ([2]; without Fer-1, Table 10, read-out: IC50 HT1080): 0.233 µM
27 | CC(C)(COC(=O)CCl)NC(=O)c1nn(Cc2cc(Cl)cc(Cl)c2)c2cc(-c3ccc(N4CCOCC4)cc3)ccc12 [QW-988] | 6.7 | 19.5 µM | 2.9 µM | 
28 | COc1ccc(-c2ccc3c(C(=O)NC(C)(C)COC(=O)CCl)nn(Cc4cccc(C(C)=O)c4)c3c2)cc1Cl [QW-892] | 1.6 | 37.7 µM | 23.7 µM | 
29 | CC(C)(COC(=O)C(Cl)Cl)NC(=O)c1nn(Cc2cc(Cl)cc(Cl)c2)c2cc(-c3ccc(N4CCOCC4)c(Cl)c3)ccc12 [QW-1000] |  | > 40 µM | > 40 µM | 
30 | CC(C)(COC(=O)CCl)NC(=O)c1nn(Cc2cc(Cl)cc(Cl)c2)c2cc(Br)ccc12 [QW-954] | 2.0 | 11.8 µM | 5.9 µM | 
31 | CC(C)(COC(=O)CCl)NC(=O)c1nn(Cc2cc(Cl)cc(Cl)c2)c2ccc(-c3ccc(N4CCOCC4)c(Cl)c3)cc12 [QW-980] | 1.5 | 8.4 µM | 5.5 µM | 
